From patent US20230346943A1, “SPACER-MEDIATED CONTROL OF UNCAGING PHOTOCAGED MOLECULES” (The Regents of the University of California, priority 2020, published 2023)

What was measured:
[1] = Photolysis (photon uncaging) kinetics of photocaged thymidine monitored by UPLC; format: physicochemical; conditions: for Rate constant (first order) for the decay of photocaged thymidine (kdecay) / Quantum efficiency (Φ) of release for thymidine (dT) / Quantum efficiency (Φ) of release for thymidine-retaining byproduct(s): 35% (v/v) aq methanol; for Efficiency of thymidine release (max): maximal free thymidine released on photolysis; for Formation of thymidine-bearing byproduct dT^N-DEACM on photolysis: regardless of the light wavelength (365, 420, 455 nm)
Method: Photolysis of 1 was performed in an aqueous medium (0.21 mM in 35% (v/v) aq methanol), and its uncaging kinetics was determined by monitoring exposed solutions using UV-vis spectroscopy and UPLC (FIGS. 3A-3D). UV-vis spectra acquired after photolysis at 420 nm (exposure time = 0-20 min) show absorption changes in an exposure time-dependent manner (FIGS. 5A-5F), but these are not applicable for the detection and quantitation of thymidine released. In contrast, UPLC traces acquired after photolysis (FIG. 3A) show the disappearance of 1 with the concomitant growth of free thymidine (dT) (tr = 3.1 min) along with coumarin photocage detached 5 (tr = 6.5 min). The area under curve (AUC) analysis of these peaks provided a decay curve for 1 (FIG. 3B). Its regression analysis allowed determining a rate constant for first-order decay (kdecay = 1.5 ×10^-3 sec^-1), and quantum efficiency for thymidine release (ΦdT = 0.015) (Table 1).
We similarly evaluated the uncaging kinetics of 2 dT^O-Bn-DEACM (0.17 mM in 35% (v/v) aq methanol) by irradiation at 420 nm (FIGS. 3C-3D). Its photolysis led to smaller changes in UV-vis spectra with lack of a clear trend compared to 1 dT^O-DEACM (FIGS. 5A-5F). Overlaid UPLC traces show time-dependent, rapid uncaging of 2 with ~65% release of thymidine achieved after an initial exposure for 5 min. […] Regression analysis of its decay curve provided a decay constant (kdecay = 1.1×10^-3 sec^-1), which is slightly lower than that of 1 (Table 1). However, its lack of the byproduct formation makes a positive contribution to enhancing its quantum efficiency for thymidine release (ΦdT = 0.025) compared to 1 (ΦdT = 0.015). This clean uncaging kinetics offers evidence for greater advantages in thymidine uncaging by the extended spacer than the direct ether linkage.
UPLC was performed for homogeneity analysis and compound characterization in a Waters Acquity System combined with a photodiode array (PDA) detector. The UPLC analysis involved running a sample in a C4 BEH column (100 × 2.1 mm, 300 Å) at a flow rate of 0.2 mL min^-1. The elution occurred in a linear gradient composed of two mobile solvents, water and acetonitrile, each containing TFA (0.1% v/v) (eluent A and B respectively). Its method consisted of an initial phase 1% B (0-1.4 min), a linear increased to 80% B (1.4-13.4 min), a decrease to 50% B (13.4-13.8 min), a decrease to 1% B (13.8-14.4 min) and finally an isocratic elution at 1% B (14.4-18 min). This method was also applied for the kinetic analysis of product release.
Light Sources. Photolytic studies for thymidine release were performed with three light sources. These include: i) UV lamp (XX-15A, Spectroline®) for irradiation at long wavelength UV light (UVA) with a maximal intensity at 365 nm;^4 ii) LZC-420 lamp (Luzchem Research) for visible light at 420 nm; iii) LZC-LBL light emitting diode (LED) lamp (Luzchem Research) for visible (blue) light 445-465 nm. Photon flux density (qn,p = qp/NA, mol × s^-1) of each lamp was determined by ferrioxalate actinometry according to a standard protocol.^52, ^53 […]
Uncaging Kinetics and Analysis. Typically, a solution of photocaged thymidine 1 or 2 (dT^caged: 0.05-0.1 mg/mL) in aq methanol (30-35% v/v) was prepared and exposed to the light at a distance of ~5 cm. After each exposure period, the solution was aliquoted out as a function of irradiation time (0-30 min), and each aliquot was analyzed by UPLC and UV-vis absorption spectrometry to determine the kinetics of thymidine release and byproduct formation. Certain aliquot was further analyzed by HPLC-MS mass spectrometry (ESI) to validate the identity of thymidine and released molecular species in the photolysed solution.
Quantum efficiency (Φ) for the release of thymidine (dT) is defined in eq 1, and its value was calculated according to a standard method as noted in eq 2:^53 […]

[2] = UV-vis absorption property; conditions: for λmax: UV-vis spectrum; for λmax / Molar absorptivity ε at λmax: 35% aq methanol
Method: We observed the absorption properties of the coumarin (DEACM), a common photocage present in 1 and 2, as shown in their UV-vis spectra (FIG. 2A).
Spectra for UV-vis Absorption Were Recorded With a Perkin Elmer Lamda 20 Spectrophotometer.

[3] = photon uncaging ability of the N-isomer; cited from earlier work

Row | Quantum efficiency (Φ) of release for thymidine (dT) ([1]; irradiation 365 nm) | Undesired species (tr = 7.8 min) in UPLC traces after photolysis ([1]; irradiation 420 nm) | Quantum efficiency (Φ) of release for thymidine (dT) ([1]; irradiation 420 nm) | Release of thymidine after initial exposure ([1]; irradiation 420 nm, exposure 5 min) | Quantum efficiency (Φ) of release for thymidine (dT) ([1]; irradiation 455 nm) | Efficiency of thymidine release (max) [1] | Efficiency of thymidine release (max) ([1]; listed as new photocaged thymidine) | Formation of thymidine-bearing byproduct dT^N-DEACM on photolysis [1] | λmax [2] | Molar absorptivity ε at 455 nm [2] | Molar absorptivity ε at λmax [2] | Quantum efficiency (Φ) of release for thymidine-retaining byproduct(s) ([1]; irradiation 365 nm) | Quantum efficiency (Φ) of release for thymidine-retaining byproduct(s) ([1]; irradiation 420 nm) | Quantum efficiency (Φ) of release for thymidine-retaining byproduct(s) ([1]; irradiation 455 nm) | Molecule | Rate constant (first order) for the decay of photocaged thymidine (kdecay) ([1]; irradiation 365 nm (UVA)) | Rate constant (first order) for the decay of photocaged thymidine (kdecay) ([1]; irradiation 420 nm (visible)) | Rate constant (first order) for the decay of photocaged thymidine (kdecay) ([1]; irradiation 455 nm (visible)) | Faster decay than 1 at 455 nm ([1]; irradiation 455 nm, relative to 1) | Photolysis rate at 455 nm lower than at 420 nm ([1]; ratio of decay rates, 455 nm vs 420 nm) | Decay on irradiation relative to 1 dT^O-DEACM [3]
1 | 0.014 | have not observed the undesired species | 0.025 | ~ 65% | 0.081 | 94% | ~ 94% | lack of the byproduct formed | 390 nm | 1,653 M^-1cm^-1 | 11,603 M^-1cm^-1 | – | – | – | dT^O-Bn-DEACM [Compound 2] | 0.0011 s⁻¹ | 0.0011 s⁻¹ | 0.00058 s⁻¹ | ~ 5 Fold | approximately 2 Fold | –
2 | 0.006 | – | 0.015 | – | 0.017 | 58% | – | induces a thymidine-bearing byproduct | 393 nm | 1,115 M^-1cm^-1 | 10,209 M^-1cm^-1 | 0.005 | 0.017 | 0.023 | CCN(CC)c1ccc2c(COc3nc(=O)n([C@H]4C[C@H](O)[C@@H](CO)O4)cc3C)cc(=O)oc2c1 [Compound 1, dT^O-DEACM, reference compound] | 0.00089 s⁻¹ | 0.0015 s⁻¹ | 0.00012 s⁻¹ | – | – | –
3 | – | – | – | – | – | – | – | – | – | – | – | – | – | – | CCN(CC)c1ccc2c(Cn3c(=O)c(C)cn(C4CC(O)C(CO)O4)c3=O)cc(=O)oc2c1 (stereo not shown) [dT^N-DEACM] | – | – | – | – | – | approximately two orders of magnitude more slowly
